How the values were obtained:
[1] = molecular target: Protein farnesyltransferase (Bos taurus, UniProt P29702+P49355); experiment: Inhibition of Farnesyltransferase catalyzed incorporation of [3H]-FPP into recombinant Ras-CVIM.; type: functional
[2] = molecular target: Protein farnesyltransferase; experiment: Displacement of radiolabeled FTI from Farnesyltransferase in v-Ha-ras-transformed Rat1 cells.; type: cell-based
[3] = molecular target: T1, Geranylgeranyl transferase type I (Homo sapiens, UniProt P49354+P53609); experiment: Inhibition of the human Geranylgeranyl transferase type I catalyzed incorporation of [3H]GGPP into a biotinylated peptide corresponding to the C-terminus of human K-Ras.; type: functional
[4] = molecular target: Protein farnesyltransferase (Homo sapiens, UniProt P49354+P49356); experiment: Inhibition of HDJ2 farnesylation in PSN-1 cells; type: functional, cell-based
[5] = molecular target: T1, Geranylgeranyl transferase type I; experiment: Inhibition of geranylgeranylation of Rap1a in PSN-1 cells; type: functional, cell-based

Structure (SMILES)	IC50 [1]	IC50 [2]	IC50 [3]	EC50 [4]	EC50 [5]
O=C1CN2CCc3cncn3Cc3cccc(c3)Oc3ccc4cccc(c4c3)N1CC2	8 nM	–	509 nM	–	–
N#Cc1ccc2cc1Oc1ccc3cccc(c3c1)N1CCN(CCc3cncn3C2)CC1=O	0.25 nM	0.19 nM	16 nM	–	–
O=C1CN(Cc2cncn2Cc2ccc(-c3cc(C(F)(F)F)cc(C(F)(F)F)c3)cc2)CCN1c1cccc(Cl)c1	3500 nM	–	1870 nM	–	–
O=C1CN2CCc3cncn3Cc3ccc(Br)c(c3)Oc3ccc4cccc(c4c3)N1CC2	1.2 nM	2 nM	161 nM	–	–
COc1cc(Cn2cncc2CN2CCN(c3cccc(Cl)c3)C(=O)C2)ccc1-c1ccc(C(F)(F)F)cc1	1.6 nM	12 nM	70 nM	–	–
O=C1CN2CCc3cncn3Cc3ccc(C#CCCC(F)(F)F)c(c3)Oc3ccc4cccc(c4c3)N1CC2	6.1 nM	0.81 nM	4.8 nM	–	–
COc1cc(Cn2cncc2CCN2CCN(c3cccc(Cl)c3)C(=O)C2)ccc1-c1ccc(C(F)(F)F)cc1	0.17 nM	1.2 nM	151 nM	28 nM	3400 nM
O=C1CN2CCc3cncn3Cc3ccc(-c4ccc(C(F)(F)F)cc4)c(c3)Oc3ccc4cccc(c4c3)N1CC2	2.1 nM	1.1 nM	15.6 nM	–	–
O=C1CN(Cc2cncn2Cc2ccc(-c3ccc(OC(F)(F)F)cc3)nc2)CCN1c1cccc(Cl)c1	52 nM	–	560 nM	–	–
O=C1CN(Cc2cncn2Cc2ccc(-c3ccc(C(F)(F)F)cc3)nc2)CCN1c1cccc(Cl)c1	14 nM	159 nM	509 nM	–	–
CCCCc1ccc2cc1Oc1ccc3cccc(c3c1)N1CCN(CCc3cncn3C2)CC1=O	10.3 nM	–	2480 nM	–	–
O=C1CN2CCc3cncn3Cc3ccc(CCCCC(F)(F)F)c(c3)Oc3ccc4cccc(c4c3)N1CC2	3.1 nM	0.48 nM	60 nM	6.9 nM	800 nM

Next, values leading:

IC50 [1]	IC50 [2]	IC50 [3]	EC50 [4]	EC50 [5]	Structure (SMILES)
19 nM	250 nM	2300 nM	–	–	O=C1CN(Cc2cncn2Cc2ccc(-c3ccc(Cl)cc3)nc2)CCN1c1cccc(Cl)c1
17 nM	–	8450 nM	–	–	O=C1CN(Cc2cncn2Cc2ccc(-c3cccc(Cl)c3)cc2)CCN1c1cccc(Cl)c1
35 nM	600 nM	3030 nM	–	–	O=C1CN(Cc2cncn2Cc2ccc(-c3cc(Cl)cc(Cl)c3)cc2)CCN1c1cccc(Cl)c1
–	29 nM	140 nM	–	–	O=C1CN(Cc2cncn2Cc2ccc(-c3ccc(C(F)(F)F)cc3)cc2)CCN1c1cccc(Cl)c1
2 nM	–	–	–	–	N#Cc1ccc(Cn2cncc2CN2CCN(c3cccc(Cl)c3)C(=O)C2)cc1 [L-778123 FREE BASE]
8.7 nM	193 nM	210 nM	–	–	O=C1CN(Cc2cncn2Cc2ccc(-c3ccc(Cl)cc3)cc2)CCN1c1cccc(Cl)c1
392 nM	–	1860 nM	–	–	COc1cc(C(F)(F)F)ccc1-c1ccc(Cn2cncc2CN2CCN(c3cccc(Cl)c3)C(=O)C2)cc1
12 nM	1600 nM	1390 nM	–	–	O=C1CN(Cc2cncn2Cc2ccc(-c3ccccc3)cc2)CCN1c1cccc(Cl)c1
15 nM	662 nM	1340 nM	–	–	O=C1CN(Cc2cncn2Cc2ccc(-c3ccc(F)cc3)cc2)CCN1c1cccc(Cl)c1
410 nM	662 nM	2680 nM	–	–	O=C1CN(Cc2cncn2Cc2ccc(-c3cccc(C(F)(F)F)c3)cc2)CCN1c1cccc(Cl)c1
